Results as given in US9232799B2, “N-[(het)arylethyl)] pyrazole(thio)carboxamides and their heterosubstituted analogues” (BAYER INTELLECTUAL PROPERTY GMBH, priority 2010, dated 2016).

Legend:
[1] = logP by HPLC on reversed-phase column (C 18), EEC Directive 79/831 Annex V.A8; format: physicochemical
Description: In table 1, the logP values were determined in accordance with EEC Directive 79/831 Annex V.A8 by HPLC (High Performance Liquid Chromatography) on a reversed-phase column (C 18), using the method described below: Temperature: 40° C.; […]

Alternaria solani = experiment: In vivo preventive test on Alternaria solani (tomato); details: 500 ppm of active ingredient, evaluated 7 days after inoculation
Source text: One day after this treatment, the plants are inoculated with an aqueous spore suspension of Alternaria solani.

aflatoxines production = experiment: microbe, parasite or virus in culture; format: cell-based, Aspergillus parasiticus; details: for inhibition at 50 µM: Aspergillus parasiticus, 168 h, read-out: % Inhibition of Aflatoxin at 50 μM
Sphaerotheca fuliginea = experiment: In vivo preventive test on Sphaerotheca fuliginea (cucumber); details: 500 ppm of active ingredient, evaluated 7 days after inoculation
Source text: One day after this treatment, the plants are inoculated with an aqueous spore suspension of Sphaerotheca fuliginea.

Pyrenophora teres = experiment: In vivo preventive test on Pyrenophora teres (barley); details: 500 ppm of active ingredient, evaluated 7-9 days after inoculation
Source text: One day after this treatment, the plants are inoculated with an aqueous spore suspension of Pyrenophora teres.

Cochliobolus miyabeanus = experiment: In vivo protective test on Cochliobolus miyabeanus (rice); details: evaluated 4 days after inoculation; for Efficacy (protection): protective, 10 ppm of active ingredient (lowest of 250, 100, 50 and 10 ppm)
Fusarium graminearum = experiment: microbe, parasite or virus in culture; format: cell-based; details: for inhibition at 50 µM: Fusarium graminearum, 168 h, read-out: % Inhibition of fungal growth at 50 μM
Uromyces appendiculatus = experiment: In vivo preventive test on Uromyces appendiculatus (beans); details: 100 ppm of active ingredient, evaluated 10 days after inoculation
Venturia inaequalis = experiment: In vivo preventive test on Venturia inaequalis (apple scab); details: 100 ppm of active ingredient, evaluated 10 days after inoculation
Leptosphaeria nodorum = experiment: In vivo preventive test on Leptosphaeria nodorum (wheat); details: 500 ppm of active ingredient, evaluated 7-9 days after inoculation
Source text: One day after this treatment, the plants are inoculated with an aqueous spore suspension of Leptosphaeria nodorum.

Puccinia triticina = experiment: In vivo preventive test on Puccinia triticina (wheat); details: evaluated 8 days after inoculation; for Efficacy: dose 500 ppm of active ingredient
Botrytis cinerea = experiment: In vivo preventive test on Botrytis cinerea (beans); details: preventive, beans, lesion size 2 days after inoculation; for Efficacy / pest or weed control at 100 ppm: 100 ppm of active ingredient
Source text: To test for preventive activity, young plants are sprayed with the preparation of active compound. After the spray coating has dried on, 2 small pieces of agar covered with growth of Botrytis cinerea are placed on each leaf.

Septoria tritici = experiment: In vivo preventive test on Septoria tritici (wheat); details: 500 ppm of active ingredient, evaluated 21 days after inoculation
Source text: (§1) To test for preventive activity, young plants are sprayed with the preparation of active compound or active compound combination at the stated rate of application.

[2] = test system: Fusarium nivale (var. majus); experiment: In vivo curative test on Fusarium nivale (wheat); details: 500 ppm of active ingredient, evaluated 5 days after inoculation
[3] = test system: Blumeria graminis f.sp. hordei; experiment: In vivo preventive test on Blumeria graminis (barley); details: 500 ppm of active ingredient, evaluated 7 days after inoculation
Source text: as §1

[4] = test system: Fusarium nivale (var. majus); experiment: In vivo preventive test on Fusarium nivale (wheat); details: 500 ppm of active ingredient, evaluated 5 days after inoculation
Source text: as §1

[5] = dose 250 ppm of active ingredient
[6] = dose 10 ppm of active ingredient
[7] = dose 50 ppm of active ingredient
[8] = dose 100 ppm of active ingredient
[9] = Botrytis cinerea, 48 h, read-out: Efficacy

Row | Compound | logP [1] | Efficacy (Alternaria solani) [%] | % Inhibition of Aflatoxin at 50 μM (aflatoxines production) [%] | Efficacy (Sphaerotheca fuliginea) [%] | Efficacy (Pyrenophora teres) [%] | Efficacy (Cochliobolus miyabeanus; [5]) [%] | % Inhibition of fungal growth at 50 μM (Fusarium graminearum) [%] | Efficacy (Uromyces appendiculatus) [%] | Efficacy (Venturia inaequalis) [%] | Efficacy (Leptosphaeria nodorum) [%] | Efficacy (Septoria tritici) [%] | Efficacy [3] [%] | Efficacy [4] [%] | further results
1 | CC(Cc1cc(Cl)ccc1Cl)NC(=O)c1c(C(F)F)nn(C)c1F (centres unmarked) [Example 92] | 3.37 | 100 | 100 | 88 | 100 | 90 | 100 | – | – | – | – | – | – | –
2 | COC(CN(C(=O)c1c(C(F)F)nn(C)c1F)C1CC1)c1ccc(Cl)cc1Cl (centres unmarked) [Example 80] | – | 95 | 100 | 100 | 100 | – | 100 | 80 | 100 | 100 | – | – | – | Efficacy (Puccinia triticina): 80%; Efficacy (Botrytis cinerea): 100%
3 | COC(CNC(=O)c1c(C(F)F)nn(C)c1Cl)c1cc(Cl)cc(Cl)c1 (centres unmarked) [Example 106] | 3.55 | – | 89 | – | 90 | – | 69 | – | – | – | 71 | – | – | Efficacy [2]: 93%
4 | CC(Cc1c(F)cccc1Cl)N(C(=O)c1c(C(F)F)nn(C)c1F)C1CC1 (centres unmarked) [Example 120] | 3.76 | 100 | 100 | 100 | 100 | – | 100 | 100 | 100 | 100 | 100 | 94 | 100 | Efficacy (Puccinia triticina): 70%; Efficacy (Botrytis cinerea): 94%
5 | CC(Cc1c(F)cccc1F)N(C(=O)c1c(C(F)F)nn(C)c1F)C1CC1 (centres unmarked) [Example 26] | 3.42 | 100 | 100 | 86 | 100 | – | 99 | – | – | 95 | 100 | 100 | – | Efficacy [2]: 100%; Efficacy (Puccinia triticina): 90%
6 | CC(CN(C(=O)c1c(C(F)F)nn(C)c1F)C1CC1)c1ccccc1 (centres unmarked) [Example 13] | 3.17 | 95 | 100 | – | 100 | – | 100 | – | – | 100 | 93 | 100 | – | Efficacy [2]: 93%
7 | Cn1nc(C(F)F)c(C(=O)NCCc2ncc(C(F)(F)F)cc2Cl)c1F [Example 187] | 2.75 | 100 | 100 | – | 100 | 85 | 100 | 96 | 100 | – | 100 | 94 | – | Efficacy (Botrytis cinerea): 100%
8 | CC(Cc1cccc(Cl)c1)NC(=O)c1c(C(F)F)nn(C)c1F (centres unmarked) [Example 50] | 3.02 | 100 | 100 | – | 100 | 90 | 100 | – | – | – | – | – | – | –
9 | COC(c1ccc(Cl)cc1Cl)C(C)NC(=O)c1c(C(F)F)nn(C)c1F (centres unmarked) [Example 73, N-[1-(2,4-dichlorophenyl)-1-methoxypropan-2-yl]-3-(difluoromethyl)-5-fluoro-1-methyl-1H-pyrazole-4-carboxamide] | 3.75 | 100 | – | 100 | 100 | 98 | – | – | 100 | – | 100 | 100 | 88 | chromatographic logP [1]: 3.65; inhibition at 50 µM (aflatoxines production): 100%; Efficacy (Cochliobolus miyabeanus; [6]): 65%; Efficacy (Cochliobolus miyabeanus; [7]): 92%; Efficacy (Cochliobolus miyabeanus; [8]): 97%; Efficacy (protection) (Cochliobolus miyabeanus): at least 65%; inhibition at 50 µM (Fusarium graminearum): 100%; pest or weed control at 100 ppm (Botrytis cinerea; [9]): 99%
10 | CC(Cc1ncc(C(F)(F)F)cc1Cl)N(C(=O)c1c(C(F)F)nn(C)c1F)C1CC1 (centres unmarked) [Example 188, N-{1-[3-chloro-5-(trifluoromethyl)pyridin-2-yl]propan-2-yl}-N-cyclopropyl-3-(difluoromethyl)-5-fluoro-1-methyl-1H-pyrazole-4-carboxamide] | – | 100 | – | 100 | 100 | 80 | – | 98 | 100 | 100 | 100 | 100 | 100 | chromatographic logP [1]: 3.8; inhibition at 50 µM (aflatoxines production): 100%; inhibition at 50 µM (Fusarium graminearum): 100%; Efficacy (Puccinia triticina): 90%; Efficacy (protection) (Puccinia triticina; preventive, 500 ppm of active ingredient): greater than 90%; pest or weed control at 100 ppm (Botrytis cinerea; [9]): 98%; pest or weed control at 500 ppm (Botrytis cinerea; Botrytis cinerea, 48 h, 500 ppm of active ingredient, read-out: Efficacy): > 95%
11 | Cn1nc(C(F)F)c(C(=O)N(CCc2ccccc2)C2CC2)c1F [Example 11] | 2.88 | 95 | 100 | 83 | 100 | – | 100 | – | – | 95 | 100 | 100 | – | Efficacy [2]: 100%
12 | COC(c1ccc(Cl)cc1Cl)C(C)NC(=O)c1cn(C)nc1C(F)F (centres unmarked) [1.14 from WO-2008/148570, N-[1-(2,4-dichlorophenyl)-1-methoxypropan-2-yl]-3-(difluoromethyl)-1-methyl-1H-pyrazole-4-carboxamide, reference compound] | – | – | – | – | – | 98 | – | – | – | – | – | – | – | Efficacy (Cochliobolus miyabeanus; [6]): 20%; Efficacy (Cochliobolus miyabeanus; [7]): 80%; Efficacy (Cochliobolus miyabeanus; [8]): 92%; Efficacy (protection) (Cochliobolus miyabeanus): less than 20%
13 | Cn1nc(C(F)F)c(C(=O)NCCc2ccc(Cl)cc2Cl)c1F [Example 65] | 3.09 | 90 | 100 | 79 | 100 | – | 100 | 100 | 100 | – | 100 | 95 | – | –
14 | Cn1nc(C(F)F)c(C(=O)NC2CC2c2ccc(Cl)cc2)c1F (centres unmarked) [Example 224] | 2.61 | 95 | 100 | 84 | 100 | – | 100 | 100 | 100 | 80 | – | – | – | –
15 | Cn1nc(C(F)F)c(C(=O)NCCc2ccc(Cl)cc2Cl)c1Cl [Example 66] | 3.31 | – | 100 | – | – | – | 100 | 98 | 100 | – | 71 | 90 | 100 | –
16 | CC(Cc1ccc(Cl)cc1)N(C(=O)c1c(C(F)F)nn(C)c1F)C1CC1 (centres unmarked) [Example 55] | 3.73 | 95 | 100 | 100 | 100 | – | 100 | 96 | 100 | 95 | 100 | 100 | 100 | Efficacy (Botrytis cinerea): 100%
17 | CC(Cc1c(Cl)cccc1Cl)N(C(=O)c1c(C(F)F)nn(C)c1F)C1CC1 (centres unmarked) [Example 115] | 4.06 | 100 | 100 | 100 | 100 | – | 100 | 98 | 100 | 95 | – | 100 | 100 | Efficacy (Puccinia triticina): 90%; Efficacy (Botrytis cinerea): 93%
